Molecular target: T1, 5α-reductase (Homo sapiens, UniProt P18405)
T1 construct: host or cells: Hs68 human genital skin fibroblasts
T1 sequence (P18405 1-259): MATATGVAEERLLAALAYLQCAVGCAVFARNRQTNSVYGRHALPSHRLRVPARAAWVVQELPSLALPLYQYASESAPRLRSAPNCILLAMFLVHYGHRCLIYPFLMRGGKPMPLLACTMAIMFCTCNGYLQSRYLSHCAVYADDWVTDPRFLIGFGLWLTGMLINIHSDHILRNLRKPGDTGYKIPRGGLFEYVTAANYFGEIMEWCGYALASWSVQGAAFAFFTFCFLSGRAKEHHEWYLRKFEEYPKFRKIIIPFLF
Assay: 5α-Reductase activity (conversion of testosterone to DHT) in Hs68 human genital skin fibroblasts, TLC of radiolabelled steroids
Type: cell-based
Conditions: Hs68 cells, four hours incubation, 0 equals no activity, 100 equals total inhibition; for inhibition at 316 µM: Concentration 0.316 mM; for inhibition at 10000 µM: Concentration 10.0 mM
Description: Cell Culture: 5α-Reductase activity was measured using Hs68 human genital skin fibroblasts which were originally purchased from the American Type Culture Collection(Rockville, MD). The cells were grown in Dulbecco's Modified Eagle's Medium (DMEM) plus 10% stripped fetal bovine serum which was supplemented with amphotericin B ([…]) and gentamicin ([…]) (GIBCO, Grand Island, NY). The serum was stripped of endogenous steroids by incubation with dextran-coated charcoal prior to its addition to the media. The cells were maintained at 37°C in an atmosphere of 95% air, 5% CO2 and were passaged every 7-10 days by exposure to a trypsin-EDTA solution (0.025% trypsin, 0.265 mM EDTA). Prior to the assay the Hs68 cells were harvested and plated in Falcon 6-well plates (Becton Dickinson Labware, Lincoln Park, NJ) at a density of 6 x 10^4 cells per well. The cells were allowed to grow for 4-5 days or until they reached approximately 80% confluence.
Assay Method I: The substrate was prepared by dissolving unlabeled testosterone (Sigma Chemical Co., St. Louis, MO) in absolute ethanol followed by the addition of [7-^3H (N)]-testosterone (23.3 Ci/mmole, New England Nuclear, Boston, MA). The steroid solution was taken to dryness under a stream of nitrogen and then reconstituted in media.
Assay Method II: The substrate used for this method was [^14C]-testosterone (50 mCi/mmol) (New England Nuclear, Boston, MA). An aliquot of the substrate was taken to dryness under a stream of nitrogen. After the addition of […] of ethanol, the testosterone was brought up in an appropriate volume of media.
Sample Preparation: The test compounds were dissolved in absolute ethanol in order to achieve the desired concentration. Subsequent dilutions of the test compounds with media were performed by the Biomek 1000 Automated Laboratory Workstation (Beckman Instruments, Palo Alto, CA). The existing media in the sample wells was aspirated and replaced with fresh media. Test compound was then added to the wells followed by the addition of 0.5 ml of the substrate. The volume of the incubation mixture was maintained at 2.0 ml. The final substrate concentration was […]. The concentration of the test compounds ranged from 0.001-15 mM. An additional three wells (background) containing media and substrate but no cells were also included to account for the non-enzymatic metabolism of the substrate. The plates were returned to the incubator and incubated for four hours.
At the end of the incubation the media was collected and transferred to an extraction tube containing 5 ml of toluene-ethanol (9:1), to which has been added […] each of unlabeled carrier steroids (estriol, estradiol, estrone, 5α-androstan-3α,17b-diol, 5α-androstan-3b,17b-diol, 4-androstene-3,17-dione, 5α-androstan-3,17-dione, testosterone, and 5α-dihydrotestosterone) (Steraloids, Inc. Wilton, NH). In the case of Assay Method I the extraction tube also contained 1,000 and 10,000 dpm of [4-^14C]-dihydrotestosterone(50-60 mCi/mmol) and [4-^14C]-testosterone (50 mCi/mmol) (New England Nuclear, Boston, MA), respectively. The [^14C]-steroids were included as recovery standards to quantify procedural losses. A small amount of NaCl was also added to the extraction tubes to prevent foaming. The samples were vortexed for approximately 30 seconds and then centrifuged for 10 minutes at 500 x g. The organic phase was collected and the samples taken to dryness, redissolved in dichloromethane-methanol (9:1) and were analyzed by thin layer chromatography using one of the methods described below.
Chromatography Method I (two-dimensional): The extracted samples were appled to silica gel 60F254, 0.25 mm thick, thin layer chromatography plates (EM Science, Cincinnati, OH). The plates were developed in the first dimension with a solvent system containing dichloromethaneethyl acetate-methanol-acetic acid (160:38:1.5:0.5, Mallinckrodt Inc., Paris, KY). […]

Compound	inhibition at 10000 µM	also measured
O=C1CCC2=C(CCc3cc(Br)ccc32)N1 [Example 1, 8-bromo-1,2,3,4,5,6-hexahydrobenzo[f]quinolin-3-one]	–	inhibition at 316 µM: 73%
CN1C(=O)CCC2=C1CCc1cc(Br)ccc12 [Example 2, 8-bromo-4-methyl-1,2,3,4,5,6-hexahydrobenzo-[f]quinolin-3-one]	98%	–
O=C1CCC2=C(CCc3cc(Cl)c(Cl)cc32)N1 [Example 3, 8,9-dichloro-1,2,3,4,5,6-hexahydrobenzo[f]quinolin-3-one]	–	inhibition at 316 µM: 85%
CN1C(=O)CCC2=C1CCc1cc(Cl)ccc12 [Example 4, 8-chloro-4-methyl-1,2,3,4,5,6-hexahydrobenzo[f]quinolin-3-one]	91%	–
Cc1ccc2c(c1)CCC1=C2CCC(=O)N1C [Example 5, 4,8-dimethyl-1,2,3,4,5,6-hexahydrobenzo[f]quinolin-3-one]	100%	–
CN1C(=O)CCC2=C1CCc1cc(F)ccc12 [Example 6, 8-fluoro-4-methyl-1,2,3,4,5,6-hexahydrobenzo[f]quinolin-3-one]	81%	–
O=C1CCC2=C(CCc3ccccc32)N1 [Example 8, 1,2,3,4,5,6-hexahydrobenzo[f]quinolin-3-one]	63%	–
CC1(C)CC2=C(CCC(=O)N2)c2ccc(Br)cc21 [Example 14, 8-bromo-6,6-dimethyl-1,2,3,4,5,6-hexahydrobenzo[f]quinolin-3-one]	–	inhibition at 316 µM: 30%
CC(C)(C)c1ccc2c(c1)CCC1=C2CCC(=O)N1 [Example 15, 8-t-butyl-1,2,3,4,5,6-hexahydrobenzo[f]quinolin-3-one]	–	inhibition at 3160 µM (Concentration 3.16 mM): 30%
O=C1CCC2=C(CCc3cccc(F)c32)N1 [Example 20, 10-fluoro-1,2,3,4,5,6-hexahydrobenzo[f]quinolin-3-one]	–	% Inhibition (Concentration 1.0 (1.00) mM): 22%

Further lines, with some results ahead:

inhibition at 10000 µM	Compound	also measured
76%	O=C1CCC2=C(CCc3cc(F)ccc32)N1 [Example 9, 8-fluoro-1,2,3,4,5,6-hexahydrobenzo[f]quinolin-3-one]	–
100%	Cc1ccc2c(c1)CCC1=C2CCC(=O)N1 [Example 13, 8-methyl-1,2,3,4,5,6-hexahydrobenzo[f]quinolin-3-one]	–
56%	CCCCN1C(=O)CCC2=C1CCc1cc(F)ccc12 [Example 25, 8-fluoro-4-n-butyl-1,2,3,4,5,6-hexahydrobenzo[f]quinolin-3-one]	–

From patent EP0591582B1, “Hexahydrobenzo (f) quinolinones as 5-alpha-reductase inhibitors” (ELI LILLY AND COMPANY, priority 1992, dated 1994)
